According to patent US20260251625A1, “METHOD FOR DETERMINING THE DEGREE OF OXIDATIVE DEGRADATION OF POLYSORBATE 20 IN AQUEOUS FORMULATIONS” (Boehringer Ingelheim International GmbH, priority 2021, published 2026):

Experiment: AAPH-induced oxidative stress of aqueous polysorbate 20 solution, PEG-6-laurate oxidation marker by LC-MS P6L
Format: physicochemical
Conditions: 1.5 mM AAPH
Method: Specifically, oxidative stress is applied to the aqueous polysorbate 20 solution using 1.5 mM 2,2′-azobis-2-methyl-propanimidamide, dihydrochloride (AAPH). The details of the sample preparation are explained in the experimental section under chapter “1.1 Materials”, point “c) Sample preparation of artificially stressed polysorbate 20”.
1.5 mM 2,2′-azobis-2-methyl-propanimidamide, dihydrochloride (AAPH) was added to a 0.040 mg/ml aqueous polysorbate 20 solution. The polysorbate 20 solution was stressed for 40 h at 50° C.
1.5 mM 2,2′-azobis-2-methyl-propanimidamide, dihydrochloride (AAPH) was added to a 0.040 mg/ml aqueous polysorbate 20 solution. The polysorbate 20 solution was stressed for 35 h at 50° C. After 0, 1, 3, 8, 12, 24 and 35 h samples were taken from the solution and immediately frozen at −20° C. in order to stop the degradation at each time point. […]
The separated species were then ionized with heated electrospray ionization (HESI) source (Ion Max Ion source with HESI probe, Thermo Fisher Scientific). […] Ions generated were detected in the mass spectrometer (LTQ, Thermo Fisher Scientific). […] PEG-6-laurate was evaluated by generating extracted ion chromatograms (EIC's) out of the full scan data to get peak areas of selected compounds using LCquan™ (Software for quantitative analysis of liquid chromatography).

increase of peak eluting at about 18.4 min, AAPH-stressed vs unstressed sample (m/z about 227 amu, 40 h at 50° C.): approximately 3.4 fold
Substance: polyethylene glycol-6-laurate
relative peak area of polyethylene glycol-6-laurate over stress time (reference T0, 50° C., 0-35 h): increase up to the sampling time point T4 (12 h)
